Read-outs that look alike come from different tables or passages of the source. Residues, ends and D or L forms follow the SMILES beside them.
Assays:
[1] = assay type: in vitro ADME; conditions: plasma
Procedure: The plasma pharmacokinetic profiles of F365 and polymyxin B were assessed in Swiss mice (female, 7-week-old, 22–28 g) after a single intraperitoneal dose (5 mg/kg, n = 3). Blood samples were collected at various time points over 24 h post dosing for analysis. The plasma pharmacokinetic profiles of F365 (n = 5) and polymyxin B (1 mg/kg, n = 11) in Sprague-Dawley rats (male, 10-week-old, 280 to 330 g) were assessed after intravenous administration (1 min) of F365 and polymyxin B via an indwelling jugular vein cannula. Blood samples (~0.3 mL) were collected via an indwelling carotid artery cannula at various time points over 24 h post dosing. Urine samples were collected at 4 °C using a metabolic cage during the period between 0 and 24 h post dosing. Concentrations of F365 and polymyxin B in plasma and urine samples were determined using LC-MS/MS and pharmacokinetic analysis was conducted using WinNonlin (Pharsight Corp., Mountain View, CA). The ELF pharmacokinetic profiles of F365 and polymyxin B was determined in neutropenic Swiss mice (female, 7-week-old, 22–28 g) after subcutaneous injection (40 mg/kg, n = 3). Bronchoalveolar lavage (BAL) samples were collected at various time points over 24 h post dosing from the cannulated trachea using Milli-Q water as BAL washing media. The average volume of ELF in mice was calculated by the ratio of urea concentrations in plasma and BAL samples. Concentrations of F365 and polymyxin B in plasma and BAL were analyzed by LC-MS/MS. Pharmacokinetic parameters were calculated using a non-compartment model with WinNonlin. For mouse, rat, and human plasma protein binding of F365 and polymyxin B, pooled plasma samples (n = 3) from each species were spiked with F365 or polymyxin B. The spiked plasma samples were subjected to ultrafiltration and the corresponding filtrates were analyzed by LC-MS/MS to determine the concentration of F365 and polymyxin B and the protein binding in each species.

[2] = 14-day repeat-dose GLP toxicology study; conditions: cynomolgus monkey, in vivo
Procedure: (§1) A 14-day repeat-dose GLP toxicology study of F365 was conducted in Cynomolgus monkeys. The study complied with the OECD Principles of Good Laboratory Practice. […] Cynomolgus monkeys were approximately 2–4 years of age and weighed between 2.0 and 2.9 kg at the start of treatment. Four male and four female cynomolgus monkeys were used for each dose group. F365 (in 0.9% sodium chloride for injection) was administered four times daily (i.e. 6 h ± 15 min apart) as 60-min intravenous infusion at 5, 20, and 50 mg/kg/day for 14 consecutive days; the reference item (vehicle control) was also administered. Assessments of mortality checks, clinical observations, body weight, ophthalmology, and electrocardiography were conducted. Blood and urine samples were collected pre-treatment and at the end of the dosing period for hematology, clinical chemistry, coagulation, and urinalysis assessments. Other blood samples were collected after the first and last dose for toxicokinetic assessment. Following the end of the 14-day dosing period, animals were euthanized on Day 16 and examined macroscopically. Organ weights and macroscopic observations were recorded at necropsy for all groups. Histopathological examinations were performed on the specified tissues and organ list for animals across all groups.

[3] = system: cynomolgus monkeys; experiment: 14-day repeat-dose GLP toxicology study; conditions: cynomolgus monkey, in vivo
Procedure: as §1

[4] = Distribution, accumulation and metabolism in mouse kidneys (ME-SALDI-MS imaging, histology); assay type: in vivo; conditions: mouse, in vivo
Procedure: At 2 h after the last dose on Day 2, mice were rapidly euthanized. The left kidney was collected, flash-frozen in liquid nitrogen, and stored at -80 C for MS imaging analysis. The right kidney was fixed in 10% formalin for histological examination (Histopathology and Organ Pathology Unit at the University of Melbourne). The level of histological damage to the kidneys was graded as previously described. […] A total of 1 μL was spotted onto electrochemically etched, porous-silicon semiconductor substrates for desorption/ionization on silicon (DIOS)[39]. […] For lipopeptide distribution in mouse kidneys, serially sectioned 8-μm frozen slices of the kidney were loaded onto DIOS substrates and coated with a thin layer of α-CHCA using a matrix sprayer (TM-Sprayer, HTX) for MSI analysis. […] Mounted tissue was scanned for imaging alignment (Epson Perfection […]) and calibrated as previously described. Resulting polymyxin maps were visualized and normalized against the total ion current (TIC) of each section using IonView software (Shimadzu). Lipopeptide accumulation in mouse kidneys was determined by simultaneous […] analysis of kidney tissue from treated animals and serial dilutions of the drug deposited on control kidney tissue. […] The signal intensities were compared to the corresponding concentration standard curve to calculate the concentration of lipopeptide present. Putative metabolites in the kidneys treated with lipopeptides were identified by […]. Control kidney sections were used to differentiate lipopeptide metabolites from endogenous metabolites and MS/MS data from lipopeptide standards were used to differentiate lipopeptide metabolites from the parent ion generated via CID processed in the acquisition software (MALDI Solutions, Shimadzu). Levels of accumulated lipopeptide metabolites were determined by normalization to the parent ion in MSI data.

[5] = system: A. baumannii FADDI-AB30; experiment: Neutropenic mouse thigh infection model; assay type: in vivo; conditions: for diff of mean Log10 CFU/lung, Pre-treament minus treatment / diff of mean Log10 CFU/lung, Vehicle minus treatment / Log10 CFU/lung, Thigh 1 / Log10 CFU/lung, Thigh 2 / Log10 CFU/lung, Thigh 3 / Log10 CFU/lung, Thigh 4: 45mg/kg/d; for Log10 CFU/lung, Thigh 1 / Log10 CFU/lung, Thigh 2 / Log10 CFU/lung, Thigh 3 / Log10 CFU/lung, Thigh 4: neutropenic mouse thigh infection; for Log10 CFU/lung, Thigh 1: Thigh 1 (Supp Fig. 4); for Log10 CFU/lung, Thigh 2: Thigh 2 (Supp Fig. 4); for Log10 CFU/lung, Thigh 3: Thigh 3 (Supp Fig. 4); for Log10 CFU/lung, Thigh 4: Thigh 4 (Supp Fig. 4)
Procedure: The experimental methodology for the neutropenic mouse thigh infection model was previously described in detail. Briefly, Swiss mice (female, 7-week-old, 22–28 g) were rendered neutropenic by intraperitoneal administration of cyclophosphamide 4 days (150 mg/kg) and 1 day (100 mg/kg) prior to inoculation. Thigh infection was established by the administration of a 50 µL bolus of early log-phase bacterial suspension (4 × 10^8 CFU/mL) directly into each thigh of two mice in each group (n = 4 thighs); this method is well accepted in antibiotic pharmacokinetic/ pharmacodynamic studies to minimize animal usage. Lipopeptide solutions were prepared in sterile saline. At 2 h after inoculation, mice were administered a lipopeptide or control solution via an intraperitoneal bolus injection at 15 mg/kg, three doses every 8 h. At 0 and 24 h after the administration, animals were euthanized and each thigh was collected and homogenized under sterile conditions. Homogenate was filtered and the filtrate was collected, serially diluted in sterile saline, and spread on nutrient agar plates. Agar plates were incubated at 37 °C overnight for bacterial colony counting and the bacterial load of both thighs (log10 CFU/thigh) in each mouse was calculated. In vivo efficacy was calculated as the difference of the log10 CFU/thigh values between the treated mice at 24 h and the pre-treatment (control) at 0 h (Δlog10 CFU/thigh = log10 [treated] CFU/thigh − log10 [pre-treatment] CFU/thigh).

Work on `CC[C@@H]1NC(=O)[C@@H](CC(C)C)NC(=O)[C@H](CCN)NC(=O)[C@@H](NC(=O)[C@H](CN)NC(=O)[C@@H](NC(=O)[C@H](CCN)NC(=O)c2ccc(Cl)cc2Cl)[C@@H](C)O)CCNC(=O)[C@H]([C@@H](C)O)NC(=O)[C@H](CCN)NC(=O)[C@H](CCN)NC1=O` [Lipopeptide F365] (HELM PEPTIDE1{[O=C(c1ccc(Cl)cc1Cl)[*:2]].[Dab].T.[NC[C@H](N[*:1])C(=O)[*:2]].[Dab].[Dab].[dL].[Abu].[Dab].[Dab].T}$PEPTIDE1,PEPTIDE1,5:R3-11:R2$$$V2.0) yielded a fraction unbound ([1]; human) of 0.55, a fraction unbound ([1]; mouse) of 0.64 and a fraction unbound ([1]; rat) of 0.67. It also gave an NOAEL [2] of at least 20 mg/kg/day, an AUC(0-t) ([2]; 5 mg/kg, Plasma AUC0-24 Day 1) of 24 µg·h/mL and an AUC(0-t) ([2]; 5 mg/kg, Plasma AUC0-24 Day 14) of 26.4 µg·h/mL. For the same compound, the AUC(0-t) ([2]; 20 mg/kg, Plasma AUC0-24 Day 1) was 97.2 µg·h/mL, the AUC(0-t) ([2]; 20 mg/kg, Plasma AUC0-24 Day 14) was 110 µg·h/mL and the AUC(0-t) ([2]; 50 mg/kg, Plasma AUC0-24 Day 1) was 246 µg·h/mL. For the same compound, the AUC(0-t) ([2]; 50 mg/kg, Plasma AUC0-24 Day 14) was 378 µg·h/mL, the “estimated dose that can be safely administered to patients” value [3] was “at least 6.5 mg/kg/day” and the Kidney histopathology ([3]; 5 mg/kg) was 8/8 no changes. For the same compound, the level at time molar ([4]; female, Swiss, 10 umol/kg, 10 μmol/kg SC, 6 doses Day 1 and 3 doses Day 2, 2 h after last dose, read-out: Concentration in the kidney cortex region) was 20.8 µM, the “M1 metabolite in kidneys” value [4] was “no M1 metabolite detected” and the “major metabolite in kidneys” value [4] was “M3”. For the same compound, the “reduction in CFU/thigh beyond polymyxin B” value ([5]; 45 mg/kg/d IP in 3 divided doses every 8 h, 24 h) was over 2.0 log10 CFU/thigh, the “diff of mean Log10 CFU/lung, Pre-treament minus treatment” value ([5]; one way ANOVA comparison) was 5.655 log10 CFU/thigh and the “diff of mean Log10 CFU/lung, Vehicle minus treatment” value ([5]; one way ANOVA comparison) was 5.9625 log10 CFU/thigh. The “diff of mean Log10 CFU/lung, Polymyxin B minus F365” value ([5]; both 45mg/kg/d, one way ANOVA comparison, Polymyxin B - F365) was 2.515 log10 CFU/thigh, the “Log10 CFU/lung, Thigh 1” value [5] was 2.83 log10 CFU/thigh and the “Log10 CFU/lung, Thigh 2” value [5] was 0 log10 CFU/thigh. For the same compound, the “Log10 CFU/lung, Thigh 3” value [5] was 3.13 log10 CFU/thigh and the “Log10 CFU/lung, Thigh 4” value [5] was 0 log10 CFU/thigh.

For Polymyxin B [reference compound], the Protein binding ([1]; human) was 68%, the Protein binding ([1]; mouse) was 95% and the Protein binding ([1]; rat) was 80%. For the same compound, the “diff of mean Log10 CFU/lung, Pre-treament minus treatment” value ([5]; one way ANOVA comparison) was 3.14 log10 CFU/thigh, the “diff of mean Log10 CFU/lung, Vehicle minus treatment” value ([5]; one way ANOVA comparison) was 3.4475 log10 CFU/thigh and the “Log10 CFU/lung, Thigh 1” value [5] was 5.16 log10 CFU/thigh. The “Log10 CFU/lung, Thigh 2” value [5] was 5.25 log10 CFU/thigh, the “Log10 CFU/lung, Thigh 3” value [5] was 3.38 log10 CFU/thigh and the “Log10 CFU/lung, Thigh 4” value [5] was 2.23 log10 CFU/thigh.

Source: paper PMC8956739, “A synthetic lipopeptide targeting top-priority multidrug-resistant Gram-negative pathogens” (Nature Communications, 2022)
